Earlier results, collected in patent US20030064909A1, “Laundry detergent and/or fabric care compositions comprising a transferase” (The Procter & Gamble Company, priority 1998, published 2003).

SMILES	solubility in water
[H]/N=C(\N/C(=N/[H])NCCCCCCNC(=N)NC(=N)Nc1ccc(Cl)cc1)Nc1ccc(Cl)cc1 [chlorhexidine diacetate, 1,1′-hexamethylene bis(5-(p-chlorophenyl)biguanide), reference compound]	about 1.8%
[H]/N=C(\N/C(=N/[H])NCCCCCCNC(=N)NC(=N)Nc1ccc(Cl)cc1)Nc1ccc(Cl)cc1 [chlorhexidine digluconate, 1,1′-hexamethylene bis(5-(p-chlorophenyl)biguanide), reference compound]	about 70%
OCCc1ccccc1 [2-phenylethanol]	about 2%
CC(C)(O)C(Cl)(Cl)Cl [chlorobutanol, 1,1,1-Trichloro-2-methylpropan-2-ol, reference compound]	about 0.8%
OCc1ccccc1 [benzyl alcohol]	about 4%
ClC=CC[N+]12CN3CN(CN(C3)C1)C2.[Cl-] [Dowicil 200, 1-(3-Chlorallyl) -3,5,7-triaza-1-azoniaadamantane chloride]	freely soluble in water
O=[N+]([O-])C(Br)(CO)CO [Bronopol, 2-bromo-2-nitropropane-1,3-diol]	about 25%
[Na+].[O-][n+]1ccccc1[S-] [sodium pyrithione]	about 50%
CC1(C)C(=O)N(CO)C(=O)N1CO [DMDM hydantoin, 1,3-bis(hydroxymethyl)-5,5-dimethyl-2,4-imidazolidinedione]	more than 50%
OCCOc1ccccc1 [2-phenoxyethanol]	about 2.67%
O=[N+]([O-])C1(Br)COCOC1 [Bronidox L, 5-bromo-5-nitro-1,3-dioxane]	about 0.46%
